As usually defined, the IC50 is the midpoint of a concentration-inhibition curve.

In experiment [1] the target is PI3 Kinase γ (Homo sapiens, UniProt P48736). As to the kind of experiment: PI3K fluorescence polarization assay (PI3 Kinase γ). The class given is biochemical. Conditions: 20 uM PIP2, 25 uM ATP. The protocol: Buffers: Reaction Buffer: 20 mM HEPES pH7.5, 2 mM MgCl2, 0.05% CHAPS, and 0.01% bME (added fresh); STOP/detection Buffer: 100 mM HEPES pH7.5, 4 mM EDTA, 0.05% CHAPS. STOCKS: ATP 20 mM in H2O; PIP2 (diC8, Echelon cat# P-4508) 1 mM in H2O MW=856.5; GST-murine GRP 1.5 mg/ml in 17% glycerol; Red detector probe-Echelon (TAMRA) 2.5 uM. Plate: Nunc 384 well black polypropylene fluor. Plate.
Chain of PI3 Kinase γ (P48736 whole entry): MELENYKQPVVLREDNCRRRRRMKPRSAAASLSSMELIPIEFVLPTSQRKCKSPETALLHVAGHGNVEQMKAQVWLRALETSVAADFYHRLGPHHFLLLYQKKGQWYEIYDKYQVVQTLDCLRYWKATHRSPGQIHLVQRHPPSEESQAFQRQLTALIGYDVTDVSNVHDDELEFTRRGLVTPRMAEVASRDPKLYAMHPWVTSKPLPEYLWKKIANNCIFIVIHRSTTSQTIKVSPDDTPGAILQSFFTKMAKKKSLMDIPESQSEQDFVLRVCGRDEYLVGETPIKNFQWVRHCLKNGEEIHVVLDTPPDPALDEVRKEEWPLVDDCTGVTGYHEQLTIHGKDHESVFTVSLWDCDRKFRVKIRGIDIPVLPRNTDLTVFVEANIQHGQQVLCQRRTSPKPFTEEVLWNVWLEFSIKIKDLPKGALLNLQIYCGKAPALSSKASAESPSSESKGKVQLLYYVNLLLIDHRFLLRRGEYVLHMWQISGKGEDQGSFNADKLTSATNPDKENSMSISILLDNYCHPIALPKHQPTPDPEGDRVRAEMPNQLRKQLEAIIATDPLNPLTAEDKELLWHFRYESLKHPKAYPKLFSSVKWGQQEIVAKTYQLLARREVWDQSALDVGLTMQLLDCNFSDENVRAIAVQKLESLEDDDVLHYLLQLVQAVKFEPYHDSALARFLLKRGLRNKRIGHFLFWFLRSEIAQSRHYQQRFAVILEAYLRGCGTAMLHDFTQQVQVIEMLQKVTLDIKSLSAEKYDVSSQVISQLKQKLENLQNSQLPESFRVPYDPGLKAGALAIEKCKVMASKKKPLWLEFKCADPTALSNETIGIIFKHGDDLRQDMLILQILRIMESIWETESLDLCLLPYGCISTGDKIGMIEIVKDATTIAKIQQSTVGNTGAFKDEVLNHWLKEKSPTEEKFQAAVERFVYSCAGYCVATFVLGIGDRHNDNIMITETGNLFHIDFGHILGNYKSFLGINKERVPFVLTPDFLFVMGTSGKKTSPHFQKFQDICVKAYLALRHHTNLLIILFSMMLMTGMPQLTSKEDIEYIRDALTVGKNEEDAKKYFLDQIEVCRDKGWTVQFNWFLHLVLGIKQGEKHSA
Assay: The assay is run by putting 9.5 ul of freshly diluted enzyme (in “reaction buffer”) per well, then 0.5 ul of diluted drug or DMSO mixing. Then 10 ul of substrate is added to start the reaction. The mixture is incubated 30-60 minutes, room temp, then stopped with 20 ul of stop/detector mix. The substrate solution, is 40 μM PIP2 and 50 uM ATP in reaction buffer. Addition of 10 ul of substrate to each well starts the reaction. This is 20 uM PIP2, 25 uM ATP final in reaction.
Stop/detector mix: 10 nM TAMRA detector, 40 nM GST-GRP in STOP/detection buffer. To stop reaction: add 20 ul Stop/detector mix per well and mix well. Wait 90-110 minutes before reading plate. Plates are read on Perkin-Elmer Envision plate readers with filters for Tamra. Keep Red probe solutions dark. This procedure is adapted from Echelon Biosciences Inc procedure for their PI3-Kinase fluorescence polarization activity Assay kit Product number K-1100.
For orientation: Polarisation of emitted light reports the rotation of a fluorescent probe.

The target in experiment [2] is T1, human TOR (Homo sapiens, UniProt P42345).
T1 construct: FLAG
As to the kind of experiment: human TOR kinase assay with purified enzyme, DELFIA format.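 Note: 2 h kinase reaction at room temperature, phosphorylation of S6K at T389 detected with a europium-labelled antibody after plate capture, DMSO vehicle as control.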 Conditions: FLAG-TOR, 100 μM ATP, His6-S6K substrate. The format is biochemical.

In experiment [3] the target is PI3 Kinase α (Homo sapiens, UniProt P42336). As to the kind of experiment: PI3K fluorescence polarization assay (PI3 Kinase α).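 Note: enzyme reaction with inhibitor or DMSO control, 30–60 min at room temperature, stopped by EDTA, then TAMRA detector with GST-GRP fluorescence polarization read after 90–110 min.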 The format is biochemical. Conditions: 20 uM PIP2, 25 uM ATP.
Chain of PI3 Kinase α (P42336 whole entry): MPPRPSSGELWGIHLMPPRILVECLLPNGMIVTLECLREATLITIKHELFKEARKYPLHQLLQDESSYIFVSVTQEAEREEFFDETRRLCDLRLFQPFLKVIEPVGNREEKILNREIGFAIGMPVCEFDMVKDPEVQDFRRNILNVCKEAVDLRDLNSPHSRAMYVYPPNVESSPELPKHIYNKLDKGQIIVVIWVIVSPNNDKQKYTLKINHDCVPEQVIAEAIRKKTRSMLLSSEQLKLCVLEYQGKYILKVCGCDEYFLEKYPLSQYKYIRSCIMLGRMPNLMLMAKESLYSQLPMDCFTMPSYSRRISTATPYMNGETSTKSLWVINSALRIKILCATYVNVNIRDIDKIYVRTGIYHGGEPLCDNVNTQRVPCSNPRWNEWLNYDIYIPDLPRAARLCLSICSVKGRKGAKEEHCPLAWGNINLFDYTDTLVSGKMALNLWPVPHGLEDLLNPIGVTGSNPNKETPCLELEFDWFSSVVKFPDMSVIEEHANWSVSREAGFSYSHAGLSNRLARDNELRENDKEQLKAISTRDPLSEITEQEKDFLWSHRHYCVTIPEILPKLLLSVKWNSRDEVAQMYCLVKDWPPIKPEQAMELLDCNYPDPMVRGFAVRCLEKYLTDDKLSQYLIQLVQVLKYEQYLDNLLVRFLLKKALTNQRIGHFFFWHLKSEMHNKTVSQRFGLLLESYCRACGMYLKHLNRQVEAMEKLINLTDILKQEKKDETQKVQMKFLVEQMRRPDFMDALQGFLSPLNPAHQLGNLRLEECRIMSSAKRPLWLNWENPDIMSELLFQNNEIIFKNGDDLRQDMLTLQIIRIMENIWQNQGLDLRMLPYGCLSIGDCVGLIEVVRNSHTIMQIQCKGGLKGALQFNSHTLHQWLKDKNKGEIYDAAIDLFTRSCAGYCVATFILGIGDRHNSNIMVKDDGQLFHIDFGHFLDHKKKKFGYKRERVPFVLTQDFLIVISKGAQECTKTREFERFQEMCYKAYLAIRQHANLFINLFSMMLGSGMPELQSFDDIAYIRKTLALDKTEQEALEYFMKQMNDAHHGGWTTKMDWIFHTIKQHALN
Chain of PI3 Kinase α (P27986 whole entry partner): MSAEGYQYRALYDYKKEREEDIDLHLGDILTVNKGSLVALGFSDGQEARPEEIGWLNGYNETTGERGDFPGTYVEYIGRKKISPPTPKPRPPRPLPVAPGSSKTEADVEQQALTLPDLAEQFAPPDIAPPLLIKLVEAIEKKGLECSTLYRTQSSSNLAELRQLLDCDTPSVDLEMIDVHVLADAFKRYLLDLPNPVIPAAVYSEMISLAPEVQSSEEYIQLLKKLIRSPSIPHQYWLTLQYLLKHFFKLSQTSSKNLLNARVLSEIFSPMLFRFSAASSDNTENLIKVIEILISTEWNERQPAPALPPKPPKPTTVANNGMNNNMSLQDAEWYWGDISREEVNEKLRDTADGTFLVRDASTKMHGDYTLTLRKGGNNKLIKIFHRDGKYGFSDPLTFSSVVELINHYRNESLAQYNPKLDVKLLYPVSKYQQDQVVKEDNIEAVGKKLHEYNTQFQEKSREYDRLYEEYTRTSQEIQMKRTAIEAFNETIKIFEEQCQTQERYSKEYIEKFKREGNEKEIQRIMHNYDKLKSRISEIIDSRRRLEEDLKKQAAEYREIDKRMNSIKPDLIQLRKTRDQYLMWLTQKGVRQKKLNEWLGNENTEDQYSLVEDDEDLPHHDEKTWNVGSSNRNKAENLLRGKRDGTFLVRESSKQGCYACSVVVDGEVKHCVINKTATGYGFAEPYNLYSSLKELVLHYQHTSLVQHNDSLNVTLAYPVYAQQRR
For experiment [4], the system named is acute lymphoblastic leukemia xenograft. Conditions: NOS/SCID xenograft mouse model of acute lymphoblastic leukemia; Teachey et al, Blood 2006; cited from earlier work.

With `C1=C(c2c[nH]c3c(N4CCOCC4)nc(-c4cccc(OCc5ccccc5)c4)nc23)CCNC1` [Example 21, 2-[3-(benzyloxy)phenyl]-4-morpholin-4-yl-7-(1,2,3,6-tetrahydropyridin-4-yl)-5H-pyrrolo[3,2-d]pyrimidine], the values for the IC50 in experiment [1], in experiment [2] and in experiment [3] were more than 10000 nM, 7000 nM and more than 10000 nM, respectively.

Consider `OCc1cccc(-c2nc(N3CCOCC3)c3[nH]cc(C4=CCNCC4)c3n2)c1` [Example 24, {3-[4-morpholin-4-yl-7-(1,2,3,6-tetrahydropyridin-4-yl)-5H-pyrrolo[3,2-d]pyrimidin-2-yl]phenyl}methanol], for which the IC50 is 1200 nM in experiment [1], 3400 nM in experiment [2] and 410 nM in experiment [3].

`OCc1cccc(-c2nc(N3CCOCC3)c3[nH]cc(C4=CCN(Cc5ccccc5)CC4)c3n2)c1` [Example 25, {3-[7-(1-benzyl-1,2,3,6-tetrahydropyridin-4-yl)-4-morpholin-4-yl-5H-pyrrolo[3,2-d]pyrimidin-2-yl]phenyl}methanol]: the IC50 came out at 2790 nM in experiment [1], 1700 nM in experiment [2] and 260 nM in experiment [3].

For the compound `Oc1cccc(-c2nc(N3CCOCC3)c3[nH]cc(C4CCN(Cc5ccco5)CC4)c3n2)c1` [Example 27, 3-{7-[1-(2-furylmethyl)piperidin-4-yl]-4-morpholin-4-yl-5H-pyrrolo[3,2-d]pyrimidin-2-yl}phenol], the IC50 in experiment [1] stood at 1610 nM; in experiment [2], 2750 nM; in experiment [3] it was 297 nM.

As to `Oc1cccc(-c2nc(N3CCOCC3)c3[nH]cc(C4CCN(Cc5ncc[nH]5)CC4)c3n2)c1` [Example 28, 3-{7-[1-(1H-imidazol-2-ylmethyl)piperidin-4-yl]-4-morpholin-4-yl-5H-pyrrolo[3,2-d]pyrimidin-2-yl}phenol], the IC50 in experiment [1] is 983 nM; in experiment [2], 2500 nM; in experiment [3] it was 358 nM.

For the compound `CC(C)CN1CCC(c2c[nH]c3c(N4CCOCC4)nc(-c4cccc(O)c4)nc23)CC1` [Example 29, 3-[7-(1-isobutylpiperidin-4-yl)-4-morpholin-4-yl-5H-pyrrolo[3,2-d]pyrimidin-2-yl]phenol], the results for the IC50 in experiment [1], in experiment [2] and in experiment [3] were 1900 nM, 3150 nM and 498 nM, respectively.

For the compound `CN1CCC(c2c[nH]c3c(N4CCOCC4)nc(-c4cccc(O)c4)nc23)CC1` [Example 30, 3-[7-(1-methylpiperidin-4-yl)-4-morpholin-4-yl-5H-pyrrolo[3,2-d]pyrimidin-2-yl]phenol], the concentration for half-maximal inhibition (IC50) in experiment [1] was found to be 828 nM; in experiment [2], 3750 nM; in experiment [3] it was 484 nM.

As for `Oc1cccc(-c2nc(N3CCOCC3)c3[nH]cc(C4CCN(C5CCCCC5)CC4)c3n2)c1` [Example 31, 3-[7-(1-cyclohexylpiperidin-4-yl)-4-morpholin-4-yl-5H-pyrrolo[3,2-d]pyrimidin-2-yl]phenol], the IC50 in experiment [1] amounted to 2490 nM; in experiment [2], 370 nM; in experiment [3], 250 nM.

As to `Oc1cccc(-c2nc(N3CCOCC3)c3[nH]cc(C4CCN(Cc5ccccc5F)CC4)c3n2)c1` [Example 32, 3-{7-[1-(2-fluorobenzyl)piperidin-4-yl]-4-morpholin-4-yl-5H-pyrrolo[3,2-d]pyrimidin-2-yl}phenol], the IC50 in experiment [1] is 1920 nM; in experiment [2] it was 330 nM; in experiment [3], 166 nM.

In the case of `Oc1cccc(-c2nc(N3CCOCC3)c3[nH]cc(C4CCN(Cc5ccc[nH]5)CC4)c3n2)c1` [Example 33, 3-{4-morpholin-4-yl-7-[1-(1H-pyrrol-2-ylmethyl)piperidin-4-yl]-5H-pyrrolo[3,2-d]pyrimidin-2-yl}phenol], the IC50 in experiment [1] was determined as 792 nM; in experiment [2] it was 960 nM; in experiment [3], 111 nM.

As for `Oc1cccc(-c2nc(N3CCOCC3)c3[nH]cc(C4CCN(Cc5ccc(F)cc5Cl)CC4)c3n2)c1` [Example 34, 3-{7-[1-(2-chloro-4-fluorobenzyl)piperidin-4-yl]-4-morpholin-4-yl-5H-pyrrolo[3,2-d]pyrimidin-2-yl}phenol], the IC50 was 1370 nM in experiment [1], 460 nM in experiment [2] and 120 nM in experiment [3].

Turning to `CC(C)(C)OC(=O)NCCN1CCC(c2c[nH]c3c(N4CCOCC4)nc(-c4cccc(O)c4)nc23)CC1` [Example 36, tert-Butyl (2-{4-[2-(3-hydroxyphenyl)-4-morpholin-4-yl-5H-pyrrolo[3,2-d]pyrimidin-7-yl]piperidin-1-yl}ethyl)carbamate], the IC50 in experiment [1] turned out to be 1730 nM; in experiment [2], 580 nM; in experiment [3], 222 nM.

Consider `Oc1cccc(-c2nc(N3CCOCC3)c3[nH]cc(C4CCN(Cc5ccccn5)CC4)c3n2)c1` [Example 38, 3-{4-morpholin-4-yl-7-[1-(pyridin-2-ylmethyl)piperidin-4-yl]-5H-pyrrolo[3,2-d]pyrimidin-2-yl}phenol], for which the figures for the IC50 in experiment [1], in experiment [2] and in experiment [3] were 611 nM, 605 nM and 140 nM, respectively.

For the compound `Oc1cccc(-c2nc(N3CCOCC3)c3[nH]cc(C4CCN(Cc5ccc(F)nc5)CC4)c3n2)c1` [Example 39, 3-(7-{1-[(6-fluoropyridin-3-yl)methyl]piperidin-4-yl}-4-morpholin-4-yl-5H-pyrrolo[3,2-d]pyrimidin-2-yl)phenol], the IC50 in experiment [1] came out at 132 nM; in experiment [2] it was 1260 nM; in experiment [3] it was 69 nM.

In the case of `CN(C)CCNC(=O)Nc1cccc(-c2nc(N3CCOCC3)c3[nH]ccc3n2)c1` [Example 40, 1-[2-(dimethylamino)ethyl]-3-[3-(4-morpholin-4-yl-5H-pyrrolo[3,2-d]pyrimidin-2-yl)phenyl]urea], the IC50 is 9500 nM in experiment [1], more than 4000 nM in experiment [2] and 4680 nM in experiment [3].

For `O=C(NCCCO)Nc1cccc(-c2nc(N3CCOCC3)c3[nH]ccc3n2)c1` [Example 41, 1-(3-hydroxypropyl)-3-[3-(4-morpholin-4-yl-5H-pyrrolo[3,2-d]pyrimidin-2-yl)phenyl]urea], the IC50 is more than 10000 nM in experiment [1], more than 4000 nM in experiment [2] and 6220 nM in experiment [3].

As for `O=C(NCCCn1ccnc1)Nc1cccc(-c2nc(N3CCOCC3)c3[nH]ccc3n2)c1` [Example 42, 1-[3-(1H-imidazol-1-yl)propyl]-3-[3-(4-morpholin-4-yl-5H-pyrrolo[3,2-d]pyrimidin-2-yl)phenyl]urea], the IC50 is more than 10000 nM in experiment [1], more than 4000 nM in experiment [2] and 8940 nM in experiment [3].

Take `O=C(NCc1ccco1)Nc1cccc(-c2nc(N3CCOCC3)c3[nH]ccc3n2)c1` [Example 43, 1-(2-furylmethyl)-3-[3-(4-morpholin-4-yl-5H-pyrrolo[3,2-d]pyrimidin-2-yl)phenyl]urea]: the IC50 in experiment [1] is more than 10000 nM; in experiment [2], more than 4000 nM; in experiment [3], more than 10000 nM.

As for `O=C(NCc1cccnc1)Nc1cccc(-c2nc(N3CCOCC3)c3[nH]ccc3n2)c1` [Example 44, 1-[3-(4-morpholin-4-yl-5H-pyrrolo[3,2-d]pyrimidin-2-yl)phenyl]-3-(pyridin-3-ylmethyl)urea], the IC50 in experiment [1] is more than 10000 nM; in experiment [2] it was more than 4000 nM; in experiment [3], more than 10000 nM.

Regarding `COC(=O)Cn1ccc2nc(-c3cccc(CO)c3)nc(N3CCOCC3)c21` [Example 46, Methyl {2-[3-(hydroxymethyl)phenyl]-4-morpholin-4-yl-5H-pyrrolo[3,2-d]pyrimidin-5-yl}acetate], the IC50 in experiment [1] is 2680 nM; in experiment [2], more than 4000 nM; in experiment [3], 2400 nM.

As for `O=C1COCCN1c1nc(-c2cccc(O)c2)nc2cc[nH]c12` [Example 48, 4-[2-(3-hydroxyphenyl)-5H-pyrrolo[3,2-d]pyrimidin-4-yl]morpholin-3-one], the IC50 in experiment [1] amounted to 2000 nM; in experiment [2] it was 505 nM; in experiment [3] it was 1180 nM.

As for `CO[C@H]1C[C@@H]2CC[C@@H](C)[C@@](O)(O2)C(=O)C(=O)N2CCCC[C@H]2C(=O)O[C@H]([C@H](C)C[C@@H]2CC[C@@H](OC(=O)C(C)(CO)CO)[C@H](OC)C2)CC(=O)[C@H](C)/C=C(\C)[C@@H](O)[C@@H](OC)C(=O)[C@H](C)C[C@H](C)/C=C/C=C/C=C/1C` [Torisel], in experiment [4], the “activity in xenograft model” value is “active”.

These data come from patent US20090149458A1, “PYRROLO[3,2-d]PYRIMIDINE COMPOUNDS AND THEIR USE AS PI3 KINASE AND mTOR KINASE INHIBITORS” (Wyeth, priority 2007, published 2009).
